The test addresses Calcium-activated potassium channel subunit alpha-1 (Rattus norvegicus) (UniProt Q62976). The experiment in a line: Activation of BK channel in rat cerebral myocytes by voltage patch clamp method. It is filed as cell-based. In general terms: Patch clamp records ionic current or voltage across a cell membrane.

Molecules are shown by their SMILES. Calls of active or inactive are those of the source. No cut-off for these calls is given here.

Calcium-activated potassium channel subunit alpha-1 (Rattus norvegicus), sequence (Q62976 whole entry): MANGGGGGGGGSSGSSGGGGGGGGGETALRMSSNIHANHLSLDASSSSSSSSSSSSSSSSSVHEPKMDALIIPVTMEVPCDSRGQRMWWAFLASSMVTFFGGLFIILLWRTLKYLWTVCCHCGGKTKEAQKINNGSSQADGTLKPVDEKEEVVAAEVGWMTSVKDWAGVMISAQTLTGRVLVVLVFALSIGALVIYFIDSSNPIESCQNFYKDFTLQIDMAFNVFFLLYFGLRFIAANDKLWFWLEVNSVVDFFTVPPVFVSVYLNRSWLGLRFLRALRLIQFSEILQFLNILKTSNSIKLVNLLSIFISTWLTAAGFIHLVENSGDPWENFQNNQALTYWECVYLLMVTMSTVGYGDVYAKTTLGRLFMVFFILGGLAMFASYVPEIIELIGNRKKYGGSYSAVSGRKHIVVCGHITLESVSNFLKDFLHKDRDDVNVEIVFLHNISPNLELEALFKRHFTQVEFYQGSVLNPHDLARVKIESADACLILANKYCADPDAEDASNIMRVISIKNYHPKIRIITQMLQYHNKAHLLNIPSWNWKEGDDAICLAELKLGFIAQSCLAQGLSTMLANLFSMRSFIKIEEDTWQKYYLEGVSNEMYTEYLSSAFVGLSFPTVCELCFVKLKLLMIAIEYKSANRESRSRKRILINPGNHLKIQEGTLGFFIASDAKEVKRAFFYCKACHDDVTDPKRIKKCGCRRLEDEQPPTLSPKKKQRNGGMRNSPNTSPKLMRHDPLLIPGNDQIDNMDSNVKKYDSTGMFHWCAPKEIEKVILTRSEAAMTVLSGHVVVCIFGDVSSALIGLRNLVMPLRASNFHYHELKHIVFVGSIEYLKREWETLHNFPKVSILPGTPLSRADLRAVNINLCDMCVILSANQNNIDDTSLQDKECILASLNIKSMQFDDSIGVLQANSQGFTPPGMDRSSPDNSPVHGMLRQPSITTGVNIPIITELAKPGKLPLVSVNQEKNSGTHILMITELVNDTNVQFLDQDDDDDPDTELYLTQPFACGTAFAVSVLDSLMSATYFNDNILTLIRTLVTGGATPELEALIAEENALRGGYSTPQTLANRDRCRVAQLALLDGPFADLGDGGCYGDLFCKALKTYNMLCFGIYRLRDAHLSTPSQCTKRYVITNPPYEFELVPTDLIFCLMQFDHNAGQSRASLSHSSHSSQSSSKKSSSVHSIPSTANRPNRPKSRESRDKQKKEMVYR

Consider `COC(=O)CCCCCCCCCC#CCCCCO`, for which the outcome was inactive. Take `COC(=O)CCCCC#CCCCO`: the outcome was Active. As for `O=C(O)CCCCCC#CCCCCO`, the outcome was Active.

Regarding `COC(=O)CCCC#CCCO`, the result was inactive. To `COC(=O)CCCCCCCC#CCCCCO` belongs “inactive”; to `O=C(O)CCCCCC#CCCCO`, “Active”.

These data come from ChEMBL document CHEMBL1150349, “Design and synthesis of hydroxy-alkynoic acids and their methyl esters as novel activators of BK channels” (Bioorg Med Chem Lett, 2008).
